According to patent US20210198277A1, “AMINE-SUBSTITUTED ARYL OR HETEROARYL COMPOUNDS” (Epizyme, Inc., priority 2016, published 2021):

Experiments:
human EHMT2 913-1193 = target: T1, human EHMT2 913-1193 (Homo sapiens, UniProt Q96KQ7); assay: EHMT2 enzyme assay on histone peptide substrate (EHMT2 PEP); assay type: biochemical; settings: Table III; read-out: EHMT2 PEP (IC50 μM)
T1 construct: recombinant purified human EHMT2 913-1193, Viva; purchased Viva
T1 sequence (Q96KQ7 913-1193): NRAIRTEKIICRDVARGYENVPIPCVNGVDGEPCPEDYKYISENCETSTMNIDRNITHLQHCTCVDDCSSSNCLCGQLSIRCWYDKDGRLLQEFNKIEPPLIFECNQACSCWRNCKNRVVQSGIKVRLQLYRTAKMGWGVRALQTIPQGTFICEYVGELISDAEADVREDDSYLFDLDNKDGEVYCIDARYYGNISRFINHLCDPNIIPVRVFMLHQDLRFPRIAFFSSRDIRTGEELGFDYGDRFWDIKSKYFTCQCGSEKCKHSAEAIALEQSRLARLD
Outline: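 Radiometric methyltransferase read-out: ^3H-methyl transfer from ^3H-SAM onto biotinylated histone peptide, captured on streptavidin Flashplates after 60 min reaction at room temperature. Enzyme 0.031 nM, preincubated 30 min with inhibitor; buffer 20 mM Bicine pH 7.5 with 1 mM TCEP; top compound concentration 50 μM final, 2% DMSO.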

EHMT1 = target: T2, EHMT1 (Homo sapiens, UniProt Q9H9B1); assay: EHMT1 enzyme assay on peptide substrate (EHMT1 PEP); assay type: biochemical; settings: Table III; read-out: EHMT1 PEP (IC50 μM)
T2 sequence (Q9H9B1 1-1298): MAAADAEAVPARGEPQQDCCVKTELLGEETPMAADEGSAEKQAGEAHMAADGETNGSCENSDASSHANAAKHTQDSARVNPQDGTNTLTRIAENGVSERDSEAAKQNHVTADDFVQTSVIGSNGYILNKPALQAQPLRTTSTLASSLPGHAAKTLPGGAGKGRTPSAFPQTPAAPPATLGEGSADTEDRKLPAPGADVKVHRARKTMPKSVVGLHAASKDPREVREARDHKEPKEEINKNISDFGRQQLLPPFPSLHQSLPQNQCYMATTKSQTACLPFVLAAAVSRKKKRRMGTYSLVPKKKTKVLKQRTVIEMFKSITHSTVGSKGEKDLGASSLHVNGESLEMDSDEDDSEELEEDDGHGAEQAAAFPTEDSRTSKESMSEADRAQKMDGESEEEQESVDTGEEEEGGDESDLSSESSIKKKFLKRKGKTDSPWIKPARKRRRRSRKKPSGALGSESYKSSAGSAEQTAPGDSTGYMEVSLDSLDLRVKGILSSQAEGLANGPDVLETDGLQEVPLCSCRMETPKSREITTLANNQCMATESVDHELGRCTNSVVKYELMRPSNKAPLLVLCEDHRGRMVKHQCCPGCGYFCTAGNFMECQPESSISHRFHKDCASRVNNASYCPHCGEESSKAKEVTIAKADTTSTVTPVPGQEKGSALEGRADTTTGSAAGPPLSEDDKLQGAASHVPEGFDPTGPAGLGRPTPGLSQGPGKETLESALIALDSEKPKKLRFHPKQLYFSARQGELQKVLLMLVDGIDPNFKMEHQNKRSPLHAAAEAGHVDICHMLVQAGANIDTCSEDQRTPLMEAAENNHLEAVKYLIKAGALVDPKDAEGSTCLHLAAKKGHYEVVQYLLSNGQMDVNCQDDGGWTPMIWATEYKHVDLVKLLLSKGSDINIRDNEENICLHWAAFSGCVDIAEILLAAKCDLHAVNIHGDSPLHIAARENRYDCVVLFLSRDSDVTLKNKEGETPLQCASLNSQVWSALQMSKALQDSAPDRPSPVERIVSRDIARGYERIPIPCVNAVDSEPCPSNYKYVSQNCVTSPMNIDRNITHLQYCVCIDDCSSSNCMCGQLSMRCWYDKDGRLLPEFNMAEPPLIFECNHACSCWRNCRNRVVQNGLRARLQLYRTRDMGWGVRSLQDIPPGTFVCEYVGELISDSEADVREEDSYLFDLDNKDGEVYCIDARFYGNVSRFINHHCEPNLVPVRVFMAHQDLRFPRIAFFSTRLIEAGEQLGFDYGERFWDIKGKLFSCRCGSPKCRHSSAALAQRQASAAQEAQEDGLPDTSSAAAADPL

Row | SMILES | IC50 (human EHMT2 913-1193) [µM] | IC50 (EHMT1) [µM]
1 | CNc1ccnc(Nc2ccc(OC)c(OCc3noc(C4CC4)n3)c2)n1 [Compound 433, N^2-(3-((5-cyclopropyl-1,2,4-oxadiazol-3-yl)methoxy)-4-methoxyphenyl)-N^4-methylpyrimidine-2,4-diamine] | > 10 | 1 to 10
2 | CNc1ccnc(Nc2ccc(OC)c(OCc3cn(C4CC4)nn3)c2)n1 [Compound 434, N^2-(3-((1-cyclopropyl-1H-1,2,3-triazol-4-yl)methoxy)-4-methoxyphenyl)-N^4-methylpyrimidine-2,4-diamine] | > 10 | > 10
3 | CNc1cc(C)nc(Nc2ccc(OC)c(OCC3CCN(C)CC3)c2)n1 [Compound 435, N^2-(4-methoxy-3-((1-methylpiperidin-4-yl)methoxy)phenyl)-N^4,6-dimethylpyrimidine-2,4-diamine] | 1 to 10 | 1 to 10
4 | CNc1cc(C)nc(Nc2ccc(OC)c(OCC3CCN(CC4CC4)CC3)c2)n1 [Compound 436, N^2-(3-((1-(cyclopropylmethyl)piperidin-4-yl)methoxy)-4-methoxyphenyl)-N^4,6-dimethylpyrimidine-2,4-diamine] | 1 to 10 | > 10
5 | CNc1cc(C)nc(Nc2ccc(OC)c(OCC3CNC3)c2)n1 [Compound 437, N^2-(3-(azetidin-3-ylmethoxy)-4-methoxyphenyl)-N^4,6-dimethylpyrimidine-2,4-diamine] | 0.1 to 1 | < 0.1
6 | CNc1ccnc(Nc2ccc(OC)c(OCCOC3CCCC3)c2)n1 [Compound 440, N^2-(3-(2-(cyclopentyloxy)ethoxy)-4-methoxyphenyl)-N^4-methylpyrimidine-2,4-diamine] | > 10 | > 10
7 | CNc1cc(COC)nc(Nc2ccc(OC)c(OCCCN3CCCC3)c2)n1 [Compound 441, N^2-(4-methoxy-3-(3-(pyrrolidin-1-yl)propoxy)phenyl)-6-(methoxymethyl)-N^4-methylpyrimidine-2,4-diamine] | 0.1 to 1 | 0.1 to 1
8 | CNc1cc(C)nc(Nc2ccc(OC)c(OCC3CN(C)C3)c2)n1 [Compound 442, N^2-(4-methoxy-3-((1-methylazetidin-3-yl)methoxy)phenyl)-N^4,6-dimethylpyrimidine-2,4-diamine] | < 0.1 | < 0.1
9 | CNc1cc(C)nc(Nc2ccc(OC)c(OC3CCN(CC4CC4)CC3)c2)n1 [Compound 443] | > 10 | > 10
10 | CCN1CC(COc2cc(Nc3nc(C)cc(NC)n3)ccc2OC)C1 [Compound 444] | < 0.1 | < 0.1
11 | CNc1cc(C)nc(Nc2ccc(OC)c(OCC3CN(CC4CC4)C3)c2)n1 [Compound 445, N^2-(3-((1-(cyclopropylmethyl)azetidin-3-yl)methoxy)-4-methoxyphenyl)-N^4,6-dimethylpyrimidine-2,4-diamine] | 0.1 to 1 | 0.1 to 1
12 | CNc1cc(C)nc(Nc2ccc(OC)c(OCC3CCN(C4CCC4)C3)c2)n1 (stereo not drawn) [Compound 446, N^2-(3-((1-cyclobutylpyrrolidin-3-yl)methoxy)-4-methoxyphenyl)-N^4,6-dimethylpyrimidine-2,4-diamine] | < 0.1 | < 0.1
13 | COc1ccc(Nc2nc(C)cc(O)n2)cc1OCCCN1CCCC1 [Compound 447, 2-((4-methoxy-3-(3-(pyrrolidin-1-yl)propoxy)phenyl)amino)-6-methylpyrimidin-4-ol] | > 10 | > 10
14 | COc1ccc(Nc2cc(C)nc(O)n2)cc1OCCCN1CCCC1 [Compound 448, 4-((4-methoxy-3-(3-(pyrrolidin-1-yl)propoxy)phenyl)amino)-6-methylpyrimidin-2-ol] | > 10 | > 10
15 | CNc1cc(C)nc(Nc2ccc(OC)c(OCC3CCN(C4COC4)C3)c2)n1 (stereo not drawn) [Compound 449, N^2-(4-methoxy-3-((1-(oxetan-3-yl)pyrrolidin-3-yl)methoxy)phenyl)-N^4,6-dimethylpyrimidine-2,4-diamine] | 0.1 to 1 | 0.1 to 1
16 | CNc1cc(N2CCCC2)nc(Nc2ccc(OC)c(OCCCN3CCCC3)c2)n1 [Compound 450, N^2-(4-methoxy-3-(3-(pyrrolidin-1-yl)propoxy)phenyl)-N^4-methyl-6-(pyrrolidin-1-yl)pyrimidine-2,4-diamine] | 1 to 10 | > 10
17 | COc1ccc(Nc2nc(C)cc(NCC3CCOCC3)n2)cc1OCC1CCN(C)C1 (stereo not drawn) [Compound 451, N^2-(4-methoxy-3-((1-methylpyrrolidin-3-yl)methoxy)phenyl)-6-methyl-N^4-((tetrahydro-2H-pyran-4-yl)methyl)pyrimidine-2,4-diamine] | 0.1 to 1 | < 0.1
18 | CNc1cc(C)nc(Nc2ccc(OC)c(OCC3CCCO3)c2)n1 (stereo not drawn) [Compound 452, N^2-(4-methoxy-3-((tetrahydrofuran-2-yl)methoxy)phenyl)-N^4,6-dimethylpyrimidine-2,4-diamine] | > 10 | 1 to 10
